In ChEMBL document CHEMBL5537193, “Multitargeting HDAC Inhibitors Containing a RAS/RAF Protein Interfering Unit” (J Med Chem, 2024):
pIC50: −log10 of the molar value. Activity calls are given as the source filed them. The rule behind the calls is not given here.

Key:
[1] = MRT (0 to t) in Sprague-Dawley rat at 15 mg/kg, ip measured after 24 hrs by LC-MS/MS analysis; format: ADME, organism-based; settings: in vivo
PANC-1 [2] = test: Induction of apoptosis in human PANC-1 cells assessed as increase in cleaved caspase-9 expression level at 2 uM incubated for 24 hrs by Western blot analysis; format: functional, cell-based
PANC-1 [3] = test: Induction of apoptosis in human PANC-1 cells assessed as increase in cleaved PARP expression level at 2 uM incubated for 24 hrs by Western blot analysis; format: functional, cell-based
[4] = Toxicity in BALB/c nude mouse xenografted with human HT-29 cells assessed as change in body weight at 7.5 to 15 mg/kg, ip administered once daily for 24 days; format: organism-based; settings: in vivo, 576 h, dose 7.5-15 mg/kg, time 24 day
NCI-H1975 = test: cells; settings: Homo sapiens, NCI-H1975, 72 h
Description: Cytotoxicity against human NCI-H1975 cells assessed as inhibition of cell growth incubated for 72 hrs by MTT assay

HT-29 [5] = test: Effect on Histone H3 expression in tumor of BALB/c mouse xenografted with human HT-29 cells at 7.5 to 15 mg/kg, ip administered once every 2 days for 12 times and measured after 24 days by Western blot analysis; format: functional, organism-based; settings: Neoplasm, dose 7.5-15 mg/kg, time 24.0 day
HT-29 [6] = test: cells; settings: Homo sapiens, HT-29, 72 h
Description: Cytotoxicity against human HT-29 cells assessed as inhibition of cell growth incubated for 72 hrs by MTT assay

HT-29 [7] = test: Effect on MEK protein expression in human HT-29 cells at 2 uM incubated for 24 hrs by Western blot analysis; format: functional, cell-based
Mus musculus [8] = test: In vivo inhibition of HDAC3 in BALB/c mouse xenografted with human HT-29 cells assessed as induction of alpha-tubulin acetylation administered intraperitoneally once every 2 days for 12 times and measured after 24 days by Western blot analysis; format: functional; settings: dose 7.5-15 mg/kg, route ip, time 24.0 day
HT-29 [9] = test: Antitumor activity against human HT-29 xenografted in BALB/c nude mouse assessed as tumor growth inhibition at 7.5 mg/kg, ip administered once every 2 days for 12 times for 24 days relative to control; format: functional; settings: HT-29, 576 h, time 24 day, read-out: TGI
Histone deacetylase 9 = Histone deacetylase 9 (Homo sapiens, UniProt Q9UKV0); test: Inhibition of HDAC9 (unknown origin)
HT-29 [10] = test: Effect on ERK1/2 expression in tumor of BALB/c mouse xenografted with human HT-29 cells at 7.5 to 15 mg/kg, ip administered once every 2 days for 12 times and measured after 24 days by Western blot analysis; format: functional, organism-based; settings: Neoplasm, dose 7.5-15 mg/kg, time 24.0 day
PANC-1 [11] = test: Inhibition of MAPK signaling pathway in human PANC-1 cells assessed as inhibition of MEK phosphorylation at 2 uM incubated for 24 hrs by Western blot analysis; format: cell-based
HT-29 [12] = test: Antitumor activity against human HT-29 xenografted in BALB/c nude mouse assessed as tumor growth inhibition at 15 mg/kg, ip administered once every 2 days for 12 times for 24 days relative to control; format: functional; settings: HT-29, 576 h, time 24 day, read-out: TGI
PANC-1 [13] = test: Effect on Histone H3 expression in human PANC-1 cells at 2 uM incubated for 24 hrs by Western blot analysis; format: functional, cell-based
PANC-1 [14] = test: Effect on alpha-tubulin expression in human PANC-1 cells at 2 uM incubated for 24 hrs by Western blot analysis; format: functional, cell-based
[15] = Toxicity in BALB/c nude mouse xenografted with human HT-29 cells assessed as change in liver histopathology at 10 to 15 mg/kg, ip administered once daily for 24 days by H&E staining based analysis; format: organism-based; settings: in vivo, 576 h, dose 10-15 mg/kg, time 24 day
[16] = Toxicity in BALB/c nude mouse xenografted with human HT-29 cells assessed as change in spleen histopathology at 10 to 15 mg/kg, ip administered once daily for 24 days by H&E staining based analysis; format: organism-based; settings: in vivo, 576 h, dose 10-15 mg/kg, time 24 day
[17] = AUC (0 to infinity) in Sprague-Dawley rat at 15 mg/kg, ip measured after 24 hrs by LC-MS/MS analysis; format: ADME, organism-based; settings: in vivo
[18] = Cmax in Sprague-Dawley rat at 15 mg/kg, ip measured after 24 hrs by LC-MS/MS analysis; format: ADME, organism-based; settings: in vivo
[19] = Toxicity in BALB/c nude mouse xenografted with human HT-29 cells assessed as change in heart histopathology at 10 to 15 mg/kg, ip administered once daily for 24 days by H&E staining based analysis; format: organism-based; settings: in vivo, 576 h, dose 10-15 mg/kg, time 24 day
HT-29 [20] = test: Effect on RAS protein expression in human HT-29 cells at 2 uM incubated for 24 hrs by Western blot analysis; format: functional, cell-based
[21] = Metabolic stability in rat liver microsomes assessed as half-life at 1 uM measured upto 40 mins by LC-MS/MS analysis; format: ADME, Microsome
HT-29 [22] = test: Effect on MEK expression in tumor of BALB/c mouse xenografted with human HT-29 cells at 7.5 to 15 mg/kg, ip administered once every 2 days for 12 times and measured after 24 days by Western blot analysis; format: functional, organism-based; settings: Neoplasm, dose 7.5-15 mg/kg, time 24.0 day
PANC-1 [23] = test: Induction of apoptosis in human PANC-1 cells assessed as increase in cleaved caspase-3 expression level at 2 uM incubated for 24 hrs by Western blot analysis; format: functional, cell-based
HT-29 [24] = test: Inhibition of MAPK signaling pathway in human HT-29 cells assessed as inhibition of MEK phosphorylation at 2 uM incubated for 24 hrs by Western blot analysis; format: cell-based
[25] = Elimination rate constant in Sprague-Dawley rat at 15 mg/kg, ip measured after 24 hrs by LC-MS/MS analysis; format: ADME, organism-based; settings: in vivo
HepG2 = test: cells; settings: Homo sapiens, HepG2, 72 h
Description: Cytotoxicity against human HepG2 cells assessed as inhibition of cell growth incubated for 72 hrs by MTT assay

PANC-1 [26] = test: Induction of apoptosis in human PANC-1 cells assessed as apoptotic cells at 2 uM incubated for 24 hrs by flow cytometric analysis relative to control; format: functional
Mus musculus [27] = test: In vivo inhibition of MAPK signaling pathway in BALB/c mouse xenografted with human HT-29 cells assessed as inhibition of MEK phosphorylation administered intraperitoneally once every 2 days for 12 times and measured after 24 days by Western blot analysis; format: functional; settings: dose 7.5-15 mg/kg, route ip, time 24.0 day
HT-29 [28] = test: Cell cycle arrest in human HT-29 cells assessed as accumulation of cells at G2-M phase at 2 uM incubated for 24 hrs by PI/RNase staining based flow cytometric analysis; format: functional
Mus musculus [29] = test: In vivo inhibition of HDAC3 in BALB/c mouse xenografted with human HT-29 cells assessed as induction of histone H3 acetylation administered intraperitoneally once every 2 days for 12 times and measured after 24 days by Western blot analysis; format: functional; settings: dose 7.5-15 mg/kg, route ip, time 24.0 day
Mus musculus [30] = test: In vivo inhibition of MAPK signaling pathway in BALB/c mouse xenografted with human HT-29 cells assessed as inhibition of c-RAF phosphorylation at Ser338 residue administered intraperitoneally once every 2 days for 12 times and measured after 24 days by Western blot analysis; format: functional; settings: dose 7.5-15 mg/kg, route ip, time 24.0 day
HT-29 [31] = test: Effect on RAS expression in tumor of BALB/c mouse xenografted with human HT-29 cells at 7.5 to 15 mg/kg, ip administered once every 2 days for 12 times and measured after 24 days by Western blot analysis; format: functional, organism-based; settings: Neoplasm, dose 7.5-15 mg/kg, time 24.0 day
PANC-1 [32] = test: Induction of apoptosis in human PANC-1 cells assessed as increase in Cytochrome C expression level at 2 uM incubated for 24 hrs by Western blot analysis; format: functional, cell-based

Chain of Histone deacetylase 9 (Q9UKV0 whole entry): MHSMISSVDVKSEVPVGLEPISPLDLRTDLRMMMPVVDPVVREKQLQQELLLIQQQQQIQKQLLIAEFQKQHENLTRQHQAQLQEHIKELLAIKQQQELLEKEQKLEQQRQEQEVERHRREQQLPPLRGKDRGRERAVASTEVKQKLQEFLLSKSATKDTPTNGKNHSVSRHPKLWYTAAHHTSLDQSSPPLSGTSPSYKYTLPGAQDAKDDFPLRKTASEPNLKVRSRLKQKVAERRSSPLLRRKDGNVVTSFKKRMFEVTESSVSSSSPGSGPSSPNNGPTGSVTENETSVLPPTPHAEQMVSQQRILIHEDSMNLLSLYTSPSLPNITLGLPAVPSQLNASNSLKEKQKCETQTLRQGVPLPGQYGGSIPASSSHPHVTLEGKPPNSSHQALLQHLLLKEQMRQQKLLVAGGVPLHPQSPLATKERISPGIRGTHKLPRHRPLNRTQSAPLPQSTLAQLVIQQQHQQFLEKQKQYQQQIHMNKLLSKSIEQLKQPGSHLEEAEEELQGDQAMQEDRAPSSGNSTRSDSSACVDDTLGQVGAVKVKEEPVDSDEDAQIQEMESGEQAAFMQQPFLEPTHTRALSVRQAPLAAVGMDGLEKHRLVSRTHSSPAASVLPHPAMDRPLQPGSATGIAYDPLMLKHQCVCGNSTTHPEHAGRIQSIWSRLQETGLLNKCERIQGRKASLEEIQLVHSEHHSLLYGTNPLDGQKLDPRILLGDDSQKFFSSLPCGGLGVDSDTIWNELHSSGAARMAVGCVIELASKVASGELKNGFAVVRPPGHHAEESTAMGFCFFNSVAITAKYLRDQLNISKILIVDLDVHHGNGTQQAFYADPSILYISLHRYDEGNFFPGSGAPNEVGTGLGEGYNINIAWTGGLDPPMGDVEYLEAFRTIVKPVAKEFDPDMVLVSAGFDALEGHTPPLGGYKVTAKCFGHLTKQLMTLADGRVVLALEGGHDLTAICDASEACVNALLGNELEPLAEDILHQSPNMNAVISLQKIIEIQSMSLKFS

- MRT last at 24 h [1]: 80.4 min
- pIC50 (NCI-H1975): 7.30
- pIC50 (HT-29 [6]): 7.40
- pIC50 (Histone deacetylase 9): 7.08
- AUC(0-inf) [17]: 5200 ng·h/mL
- Cmax [18]: 2800 ng/mL
- half-life at 1 µM [21]: 5.52 min
- k el at 24 h [25]: 0.000252 s⁻¹
- pIC50 (HepG2): 6.00
Compound: COc1cc(OC)c(/C=C/S(=O)(=O)Cc2ccc(OC)c(NCC(=O)NO)c2)c(OC)c1
- Activity (PANC-1 [2]): Active
- Activity (PANC-1 [3]): Active
- Activity [4]: Non-Toxic
- Activity (HT-29 [5]): inactive
- Activity (HT-29 [7]): inactive
- inhibition (Mus musculus [8]): Dose-Dependent Effect
- inhibition in vivo at 7.5 mg/kg (HT-29 [9]): 64.3%
- Activity (HT-29 [10]): inactive
- inhibition (PANC-1 [11]): Active
- inhibition in vivo at 15 mg/kg (HT-29 [12]): 75.2%
- Activity (PANC-1 [13]): inactive
- Activity (PANC-1 [14]): inactive
- Activity [15]: Non-Toxic
- Activity [16]: Non-Toxic
- Activity [19]: Non-Toxic
- Activity (HT-29 [20]): inactive
- Activity (HT-29 [22]): inactive
- Activity (PANC-1 [23]): Active
- inhibition (HT-29 [24]): Active
- Activity (PANC-1 [26]): 57.4%
- inhibition (Mus musculus [27]): Dose-Dependent Effect
- Activity (HT-29 [28]): Active
- inhibition (Mus musculus [29]): Dose-Dependent Effect
- inhibition (Mus musculus [30]): Dose-Dependent Effect
- Activity (HT-29 [31]): inactive
- Activity (PANC-1 [32]): Active
